The structures appear in SMILES notation. Where a name gives a salt, the structure may show the parent alone.

Chain of Histamine H3 receptor (Q9JI35 whole entry): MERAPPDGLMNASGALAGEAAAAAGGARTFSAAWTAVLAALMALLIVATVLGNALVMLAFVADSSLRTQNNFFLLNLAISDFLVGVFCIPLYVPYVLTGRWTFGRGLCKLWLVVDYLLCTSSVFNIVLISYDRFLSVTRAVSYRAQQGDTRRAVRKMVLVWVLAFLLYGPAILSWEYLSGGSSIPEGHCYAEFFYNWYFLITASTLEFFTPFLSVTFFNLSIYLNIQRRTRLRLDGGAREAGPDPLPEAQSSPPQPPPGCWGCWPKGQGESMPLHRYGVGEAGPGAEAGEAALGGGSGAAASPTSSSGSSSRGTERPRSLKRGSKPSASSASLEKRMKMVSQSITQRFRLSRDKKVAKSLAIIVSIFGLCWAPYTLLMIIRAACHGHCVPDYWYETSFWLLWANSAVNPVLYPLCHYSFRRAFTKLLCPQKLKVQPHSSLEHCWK

In one test the target is Histamine H3 receptor (Cavia porcellus, UniProt Q9JI35). In words: Histamine H3 radioligand binding assay, guinea pig cortex ([3H]-R-α-methylhistamine). Conditions: guinea pig cortex membranes, competition with 1 nM [3H]-R-α-methylhistamine. On the procedure: The compounds of the invention were also tested in a guinea pig cortex binding assay, as follows:
Histamine H3 Radioligand Binding Assay—Guinea Pig Cortex
Male Dunkin Hartley guinea pigs (200-300 g) were used. The whole brain was removed and immediately placed in ice-cold 20 mM Hepes-NaOH buffer (pH7.4 at 21±3° C.). The cortex was dissected, weighed and homogenised in ice-cold 20 mM Hepes-NaOH buffer (pH7.4 at 21±3° C.) (50 ml/guinea-pig cortex) using a polytron (Kinematica AG; PT-DA 3020/2TS, 3×3 s). The homogenate was centrifuged at 100×g for 5 min and the supernatants pooled and stored at 4° C. The pellets were rehomogenised in fresh ice-cold buffer (80 ml) and recentrifuged (100×g for 5 min). The supernatants were pooled and pellets rehomogenised and recentrifuged (100×g for 5 min). All supernatants were pooled and centrifuged at 39,800×g for 12 min at 4° C. The final pellet was resuspended in 20 mM Hepes-NaOH buffer (pH7.4 at 21±3° C.) to a tissue concentration of 7.5 mg.ml^−1, using a teflon-in-glass homogeniser.
Guinea pig cortex membranes (400 μl) were incubated for 165 min at 21±3° C. in a final volume of 500 μl with 20 mM Hepes-NaOH buffer containing [^3H]-R-α-methylhistamine (50 μl; 1 nM) and competing compound. Total and non-specific binding of [^3H]-R-α-methylhistamine were defined using 50 μl of buffer and 50 μl of 10 μM thioperamide, respectively. The assay was terminated by rapid filtration through Whatman GF/B filters, presoaked (2 hr) in 0.1% polyethyleneimine, using a Brandell Cell Harvester. The filters were washed (3×3 ml) with ice-cold 50 mM Tris-HCl (pH6.9 at 21±3° C.), transferred into scintillation vials, 5 ml liquid scintillation cocktail was added and after 4 hours the bound radioactivity was determined by counting (4 min) in a Beckman liquid scintillation counter.
Data are analysed using GraphPad prism and the general equation for a competition curve with variable Hill slope (nH). [formula] where • X is the log concentration of competing compound, • Y is the binding obtained at each concentration of X, • pIC50 is the concentration of the competitor required to compete for half of the specific binding.
The IC50 is converted to the K1 using the Cheng Prusoff equation, K1=IC50/(1+(L/KD)) where • IC50 is the concentration of competitor required to compete for half the specific binding, • L is the radioligand concentration used, • KD is the equilibrium dissociation constant for the radioligand determined by saturation experiments.
With `Cl.Cl.N=C(NCCCN1CCCC1)NCC1CCCCC1` [Example 39, N-Cyclohexyl-methyl-N′-(3-pyrrolidin-1-yl-propyl)-guanidine bis-hydrochloride], the “pKi (Guinea pig cortex)” value was found to be 7.4.

Still in this test, the particulars now being: guinea pig cortex membranes, competition with 1 nM [3H]-R-α-methylhistamine; read-out: pKi (Guinea pig cortex) (converted).
As to `N=C(NCCCN1CCOCC1)NCc1ccc(Cl)cc1` [Example 15, N-(4-Chlorobenzyl)-N′-(3-morpholin-4-yl-propyl)-guanidine bis-hydrochloride], the Ki is 794 nM.

As for `N=C(NCCc1ccc(Cl)cc1)NCCN1CCCC1` [Example 23, N-(2-(4-Chlorophenyl)ethyl)-N′-(2-pyrrolidin-1-yl-ethyl)-guanidine bis-hydrochloride], the Ki was 316 nM.

As to `CN1CCCC1CCNC(=N)NCc1ccc(Cl)cc1` (stereo not drawn) [Example 27, N-(4-Chlorobenzyl)-N′-(2-(1-methyl-pyrrolidin-2-yl)-ethyl)-guanidine bis-hydrochloride], the Ki was 158 nM.

`N=C(NCCCCCN1CCCC1)NCc1ccc(C2CCCCC2)cc1` [Example 57, N-(4-Cyclohexylbenzyl)-N′-(5-pyrrolidin-1-yl-pentyl)-guanidine bis-hydrochloride]: the Ki was 20 nM.

Take `CN1CCN(CCCCNS(=O)(=O)c2ccc3ccccc3c2)CC1` [Example 85, N-(4-(4-Methyl-piperazin-1-yl)-butyl)-2-naphthalenesulfonamide]: the Ki is 158 nM.

As for `CN(CCN1CCCC1)S(=O)(=O)c1ccc2ccccc2c1` [Example 86, N-(2-Pyrrolidin-1-yl-ethyl)-N-methyl-2-naphthalenesulfonamide], the Ki is 2510 nM.

For the compound `[O-][S+](NCCCN1CCCC1)c1ccc2ccccc2c1` (stereo not drawn) [Example 87, N-(3-Pyrrolidin-1-yl-propyl)-2-naphthalenesulfinamide], the Ki is 1260 nM.

Take `CN1CCCCC1CCNS(=O)(=O)c1ccc2ccccc2c1` (stereo not drawn) [Example 90, N-(2-(1-Methyl-piperidin-2-yl)-ethyl)-2-naphthalenesulfonamide]: the Ki is 1260 nM.

Regarding `CN1CCCC(CCCNS(=O)(=O)c2ccc3ccccc3c2)C1` (stereo not drawn) [Example 92, N-(3-(1-Methyl-piperidin-3-yl)-propyl)-2-naphthalenesulfonamide], the Ki was 2000 nM.

As to `CN1CCC(CCCNS(=O)(=O)c2ccc3ccccc3c2)CC1` [Example 93, N-(3-(1-Methyl-piperidin-4-yl)-propyl)-2-naphthalenesulfonamide], the Ki was 3160 nM.

For `CN1CCCC1CCNS(=O)(=O)c1cccc2ccccc12` (stereo not drawn) [Example 94, N-(2-(1-Methyl-pyrrolidin-2-yl)-ethyl)-1-naphthalenesulfonamide], the Ki is 2510 nM.

Take `Cc1ccc(S(=O)(=O)NCCC2CCCN2C)cc1` (stereo not drawn) [Example 95, N-(2-(1-Methyl-pyrrolidin-2-yl)ethyl)4-toluenesulfonamide]: the Ki was 1580 nM.

For `CN1CCCC1CCNS(=O)(=O)c1ccc(Cl)cc1` (stereo not drawn) [Example 96, N-(2-(1-Methyl-pyrrolidin-2-yl)-ethyl)-4-chlorophenylsulfonamide], the Ki was 1580 nM.

Regarding `CN1CCC[C@H]1CCNS(=O)(=O)Cc1ccc(Cl)cc1` [Example 97, N-(2-(1-Methyl-pyrrolidin-2S-yl)-ethyl)-(4-chlorophenyl)-methanesulfonamide], the Ki is 1580 nM.

Take `CN1CCC[C@H]1CCCNS(=O)(=O)NCc1ccccc1` [Example 108, N-Benzyl-N′-(3-(1-methyl-pyrrolidin-2S-yl)-propyl)-sulfamide]: the Ki is 1580 nM.

As for `CN1CCC[C@@H]1CCCNS(=O)(=O)NCc1ccc(Cl)cc1` [Example 109, N-(4-Chlorobenzyl)-N′-(3-(1-methyl-pyrrolidin-2R-yl)-propyl)-sulfamide], the Ki is 200 nM.

In the case of `CN1CCC[C@H]1CCCNS(=O)(=O)NCCc1ccc(Cl)cc1` [Example 111, N-(2-(4-Chlorophenyl)-ethyl)-N′-(3-(1-methyl-pyrrolidin-2S-yl)-propyl)-sulfamide], the Ki is 1580 nM.

Regarding `CN1CCCC1CCCCCNS(=O)(=O)NCc1ccc(Cl)cc1` (stereo not drawn) [Example 117, N-(4-Chlorobenzyl)-N′-(5-(1-methyl-pyrrolidin-2S-yl)-pentyl)-sulfamide], the Ki was 79.4 nM.

Turning to `O=S(=O)(NCCC[C@@H]1CCCN1CCCc1ccc(Cl)cc1)NCc1ccc(Cl)cc1` [Example 118], the Ki is 1580 nM.

As for `COC(=O)CN(CCC[C@@H]1CCCN1C)S(=O)(=O)NCc1ccc(Cl)cc1` [Example 123, N-(4-Chlorobenyl)-N′-(methoxycarbonylmethyl)-N′-(3-(1-methyl-pyrrolidin-2S-yl)propyl)-sulfamide], the Ki was 251 nM.

`CN1CCC[C@H]1CCCN(CCO)S(=O)(=O)NCc1ccc(Cl)cc1` [Example 124, N-(4-Chlorobenzyl)-N′-(2-hydroxyethyl)-N′-(3-(1-methyl-pyrrolidin-2S-yl)propyl)-sulfamide]: the Ki is 1260 nM.

For the compound `CN1CCC[C@H]1CCCN(CCCN)S(=O)(=O)NCc1ccc(Cl)cc1` [Example 126, N-(4-Chlorobenzyl)-N′-(3-amino-propyl)-N′-(3-(1-methyl-pyrrolidin-2S-yl)propyl)-sulfamide], the Ki is 1000 nM.

For the compound `CN(C)C(=O)CN(CCC[C@@H]1CCCN1C)S(=O)(=O)NCc1ccc(Cl)cc1` [Example 128, N-(4-Chlorobenzyl)-N′-(dimethylamidomethyl)-N′-(3-(1-methyl-pyrrolidin-2S-yl)propyl)-sulfamide], the Ki was 3160 nM.

For the compound `CN1CCC[C@H]1CCCN(CC(=O)NCc1ccc(Cl)cc1)S(=O)(=O)NCc1ccc(Cl)cc1` [Example 129, N-(4-Chlorobenzyl)-N′-(4-chlorobenzylamidomethyl)-N′-(3-(1-methyl-pyrrolidin-2S-yl)propyl)-sulfamide], the Ki was 794 nM.

For the compound `CN1CCC[C@H]1CCCN(CC(=O)OCc1ccccc1)S(=O)(=O)NCc1ccc(Cl)cc1` [Example 130, N-(4-Chlorobenzyl)-N′-(benyloxycarbonylmethyl)-N′-(3-(1-methyl-pyrrolidin-2S-yl)propyl)-sulfamide], the Ki was 5010 nM.

Take `O=S(=O)(NCCN1CCCC1)NCc1ccc(Cl)cc1` [Example 134, N-(4-Chlorobenzyl)-N′-(2-pyrrolidin-1-yl-ethyl)-sulfamide]: the Ki is 1000 nM.

Consider `CN1CCCC1CCCCS(=O)(=O)NCC1CCCCC1` (stereo not drawn) [Example 137, N-Cyclohexyl-methyl-4-(1-methyl-pyrrolidin-2S-yl)-butanesulfonamide], for which the Ki is 2510 nM.

Regarding `CN1CCCC1CCCCS(=O)(=O)NCC12CC3CC(CC(C3)C1)C2` (stereo not drawn) [Example 138, N-Adamantan-1-yl-methyl-4-(1-methyl-pyrrolidin-2S-yl)-butanesulfonamide], the Ki is 1260 nM.

`CC(C)CN1CCC[C@H]1CCCNS(=O)(=O)Cc1ccc(Cl)cc1` [Example 143]: the Ki is 794 nM.

Values taken from US6878736B1, “Histamine H3 receptor ligands” (James Black Foundation Limited, priority 1998, dated 2005).
